What was measured:
Format in all cases: cell-based
[1] = tested on: IL-1β; experiment: Whole bovine blood assay, LPS-induced IL-1β (inhibition / overstimulation); details: drug concentration giving overstimulation (OS) of LPS-induced IL-1β, top concentration 250 μM
In short: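 IL-1β was quantified by MSD U-Plex chemiluminescence in plasma and normalized to BCA total protein. Bovine blood was pretreated 4 h at 37 °C with compound dilutions before 18 h LPS challenge (1 μg/mL final). Rising IL-1β at high concentrations was recorded as overstimulation.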

[2] = tested on: IL-6; experiment: Whole bovine blood assay, LPS-induced IL-6; details: fresh whole bovine blood, LPS stimulant; top drug concentration 250 μM
[3] = tested on: TNF-α; experiment: Whole bovine blood assay, LPS-induced TNF-α; details: fresh whole bovine blood, LPS stimulant; top drug concentration 250 μM
In short: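 Fresh heparinized bovine whole blood was preincubated with compound 4 h at 37 °C, then stimulated with LPS (final 1 μg/mL) for 18 h at 37 °C. Plasma TNF-α was quantified by MSD U-Plex chemiluminescent immunoassay, normalized to total protein (BCA), and IC50 taken for LPS-induced TNF-α inhibition.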

| SMILES | minimal effective concentration [1] [µM] | IC50 [2] [µM] | IC50 [3] [µM] |
| --- | --- | --- | --- |
| CC[C@H]1OC(=O)[C@H](C)[C@@H](O[C@H]2C[C@@](C)(OC)[C@](O)(CN3CCCCC3)[C@H](C)O2)[C@H](C)[C@@H](O[C@@H]2O[C@H](C)C[C@H](N(CC(C)C)S(=O)(=O)Nc3ccc(C(F)(F)F)cc3)[C@H]2O)[C@](C)(O)C[C@@H](C)CN[C@H](C)[C@@H](O)[C@]1(C)O [Example C-44] | 6 | 4 | 4 |
| CC[C@H]1OC(=O)[C@H](C)[C@@H](O[C@H]2C[C@@](C)(OC)[C@](O)(CN3CCN(C)CC3)[C@H](C)O2)[C@H](C)[C@@H](O[C@@H]2O[C@H](C)C[C@H](N(C)S(=O)(=O)c3ccc(Cl)cc3)[C@H]2O)[C@](C)(O)C[C@@H](C)CN[C@H](C)[C@@H](O)[C@]1(C)O [Example C-7] | 6 | 50 | 66 |
| CCCNC[C@]1(O)[C@H](C)O[C@@H](O[C@H]2[C@H](C)[C@@H](O[C@@H]3O[C@H](C)C[C@H](N(C)S(=O)(=O)c4ccc(Br)cc4)[C@H]3Oc3ccc(OC)cc3)[C@](C)(O)C[C@@H](C)CN[C@H](C)[C@@H](O)[C@](C)(O)[C@@H](CC)OC(=O)[C@@H]2C)C[C@@]1(C)OC [Example B-104] | 3 | 7 | 15 |
| CCCNC[C@]1(O)[C@H](C)O[C@@H](O[C@H]2[C@H](C)[C@@H](O[C@@H]3O[C@H](C)C[C@H](N(Cc4ccc(OC)cc4)S(=O)(=O)c4nccn4C)[C@H]3O)[C@](C)(O)C[C@@H](C)CN[C@H](C)[C@@H](O)[C@](C)(O)[C@@H](CC)OC(=O)[C@@H]2C)C[C@@]1(C)OC [Example B-146] | 2 | 10 | 10 |
| CC[C@H]1OC(=O)[C@H](C)[C@@H](O[C@H]2C[C@@](C)(OC)[C@](O)(CN3CCCCC3)[C@H](C)O2)[C@H](C)[C@@H](O[C@@H]2O[C@H](C)C[C@H](N(C)S(=O)(=O)c3ccccc3)[C@H]2Oc2ccnc(F)c2)[C@](C)(O)C[C@@H](C)CN[C@H](C)[C@@H](O)[C@]1(C)O [Example C-55] | 6 | 9 | 6 |
| CCCNC[C@]1(O)[C@H](C)O[C@@H](O[C@H]2[C@H](C)[C@@H](O[C@@H]3O[C@H](C)C[C@H](N(C)S(=O)(=O)c4nccn4C)[C@H]3Oc3ccc(Cl)cc3)[C@](C)(O)C[C@@H](C)CN[C@H](C)[C@@H](O)[C@](C)(O)[C@@H](CC)OC(=O)[C@@H]2C)C[C@@]1(C)OC [Example B-136] | 6 | 9 | 8 |
| CC[C@H]1OC(=O)[C@H](C)[C@@H](O[C@H]2C[C@@](C)(OC)[C@](O)(CN3CCCCC3)[C@H](C)O2)[C@H](C)[C@@H](O[C@@H]2O[C@H](C)C[C@H](N(C)S(=O)(=O)c3ccccc3)[C@H]2Oc2ccc(F)cc2)[C@](C)(O)C[C@@H](C)CN[C@H](C)[C@@H](O)[C@]1(C)O [Example C-54] | 6 | 4 | 2 |
| CC[C@H]1OC(=O)[C@H](C)[C@@H](O)[C@H](C)[C@@H](O[C@@H]2O[C@H](C)C[C@H](N(C)S(=O)(=O)c3cccs3)[C@H]2Oc2ccc(F)cc2)[C@](C)(O)C[C@@H](C)CN[C@H](C)[C@@H](O)[C@]1(C)O [Example A-22] | 16 | 22 | 30 |
| CC[C@H]1OC(=O)[C@H](C)[C@@H](O[C@H]2C[C@@](C)(OC)[C@](O)(CN3CCCCC3)[C@H](C)O2)[C@H](C)[C@@H](O[C@@H]2O[C@H](C)C[C@H](N(C)S(=O)(=O)c3nccn3C)[C@H]2Oc2ccnc(F)c2)[C@](C)(O)C[C@@H](C)CN[C@H](C)[C@@H](O)[C@]1(C)O [Example C-49] | 6 | 9 | 6 |
| CC[C@H]1OC(=O)[C@H](C)[C@@H](O)[C@H](C)[C@@H](O[C@@H]2O[C@H](C)C[C@H](N(C)S(=O)(=O)c3cc4ccccc4o3)[C@H]2Oc2ccc(F)cc2)[C@](C)(O)C[C@@H](C)CN[C@H](C)[C@@H](O)[C@]1(C)O [Example A-24] | 19 | 26 | 30 |
| CC[C@H]1OC(=O)[C@H](C)[C@@H](O)[C@H](C)[C@@H](O[C@@H]2O[C@H](C)C[C@H](N(C)S(=O)(=O)c3nccn3C)[C@H]2Oc2ccc(F)c(C(F)(F)F)c2)[C@](C)(O)C[C@@H](C)CN[C@H](C)[C@@H](O)[C@]1(C)O [Example A-34] | 40 | 59 | 205 |
| CCCNC[C@]1(O)[C@H](C)O[C@@H](O[C@H]2[C@H](C)[C@@H](O[C@@H]3O[C@H](C)C[C@H](N(C)S(=O)(=O)c4ccc(F)cc4)[C@H]3Oc3ccc(F)cc3)[C@](C)(O)C[C@@H](C)CN[C@H](C)[C@@H](O)[C@](C)(O)[C@@H](CC)OC(=O)[C@@H]2C)C[C@@]1(C)OC [Example B-108] | 6 | 10 | 5 |
| CCCNC[C@]1(O)[C@H](C)O[C@@H](O[C@H]2[C@H](C)[C@@H](O[C@@H]3O[C@H](C)C[C@H](N(C)S(=O)(=O)N(C)Cc4ccccc4)[C@H]3O)[C@](C)(O)C[C@@H](C)CN[C@H](C)[C@@H](O)[C@](C)(O)[C@@H](CC)OC(=O)[C@@H]2C)C[C@@]1(C)OC [Example B-44] | 3 | 9 | 13 |
| CC[C@H]1OC(=O)[C@H](C)[C@@H](O[C@H]2C[C@@](C)(OC)[C@](O)(CNc3ccc(OC)cc3)[C@H](C)O2)[C@H](C)[C@@H](O[C@@H]2O[C@H](C)C[C@H](N(C)S(N)(=O)=O)[C@H]2O)[C@](C)(O)C[C@@H](C)CN[C@H](C)[C@@H](O)[C@]1(C)O [Example B-125] | 16 | 88 | 34 |
| CC[C@H]1OC(=O)[C@H](C)[C@@H](O[C@H]2C[C@@](C)(OC)[C@](O)(CN3CCSCC3)[C@H](C)O2)[C@H](C)[C@@H](O[C@@H]2O[C@H](C)C[C@H](N(C)S(=O)(=O)c3ccc(Cl)cc3)[C@H]2O)[C@](C)(O)C[C@@H](C)CN[C@H](C)[C@@H](O)[C@]1(C)O [Example C-6] | 16 | 32 | 6 |
| CC[C@H]1OC(=O)[C@H](C)[C@@H](O[C@H]2C[C@@](C)(OC)[C@](O)(CN3CCN(CC)CC3)[C@H](C)O2)[C@H](C)[C@@H](O[C@@H]2O[C@H](C)C[C@H](N(C)S(=O)(=O)Nc3ccc(C(F)(F)F)cc3)[C@H]2O)[C@](C)(O)C[C@@H](C)CN[C@H](C)[C@@H](O)[C@]1(C)O [Example C-12] | 100 | 140 | 13 |
| CCCNC[C@]1(O)[C@H](C)O[C@@H](O[C@H]2[C@H](C)[C@@H](O[C@@H]3O[C@H](C)C[C@H](N(C)S(=O)(=O)N(C)C)[C@H]3O)[C@](C)(O)C[C@@H](C)CN[C@H](C)[C@@H](O)[C@](C)(O)[C@@H](CC)OC(=O)[C@@H]2C)C[C@@]1(C)OC [Example B-51] | 97 | 62 | 38 |
| CC[C@H]1OC(=O)[C@H](C)[C@@H](O[C@H]2C[C@@](C)(OC)[C@](O)(CN3CCCCC3)[C@H](C)O2)[C@H](C)[C@@H](O[C@@H]2O[C@H](C)C[C@H](N(C)S(=O)(=O)c3ccccc3)[C@H]2Oc2ccccc2)[C@](C)(O)C[C@@H](C)CN[C@H](C)[C@@H](O)[C@]1(C)O [Example C-53] | 6 | 2 | 2 |
| CC[C@H]1OC(=O)[C@H](C)[C@@H](O[C@H]2C[C@@](C)(OC)[C@](O)(CNCCCNC(C)=O)[C@H](C)O2)[C@H](C)[C@@H](O[C@@H]2O[C@H](C)C[C@H](N(C)S(=O)(=O)Nc3ccc(C(F)(F)F)cc3)[C@H]2O)[C@](C)(O)C[C@@H](C)CN[C@H](C)[C@@H](O)[C@]1(C)O [Example B-88] | 14 | 40 | 22 |
| CCCNC[C@]1(O)[C@H](C)O[C@@H](O[C@H]2[C@H](C)[C@@H](O[C@@H]3O[C@H](C)C[C@H](N(C)S(=O)(=O)NC)[C@H]3O)[C@](C)(O)C[C@@H](C)CN[C@H](C)[C@@H](O)[C@](C)(O)[C@@H](CC)OC(=O)[C@@H]2C)C[C@@]1(C)OC [Example B-55] | 26 | > 32 | > 250 |
| CCCNC[C@]1(O)[C@H](C)O[C@@H](O[C@H]2[C@H](C)[C@@H](O[C@@H]3O[C@H](C)C[C@H](N(C)S(=O)(=O)c4nccn4C)[C@H]3Oc3c(C)cccc3F)[C@](C)(O)C[C@@H](C)CN[C@H](C)[C@@H](O)[C@](C)(O)[C@@H](CC)OC(=O)[C@@H]2C)C[C@@]1(C)OC [Example B-110] | 18 | 75 | 154 |
| CC[C@H]1OC(=O)[C@H](C)[C@@H](O[C@H]2C[C@@](C)(OC)[C@](O)(CNCCCF)[C@H](C)O2)[C@H](C)[C@@H](O[C@@H]2O[C@H](C)C[C@H](N(C)S(=O)(=O)Nc3ccc(C(F)(F)F)cc3)[C@H]2O)[C@](C)(O)C[C@@H](C)CN[C@H](C)[C@@H](O)[C@]1(C)O [Example B-91] | 2 | 101 | 34 |
| CCCNC[C@]1(O)[C@H](C)O[C@@H](O[C@H]2[C@H](C)[C@@H](O[C@@H]3O[C@H](C)C[C@H](N(C)S(=O)(=O)c4ccccc4)[C@H]3Oc3ccc(F)cc3)[C@](C)(O)C[C@@H](C)CN[C@H](C)[C@@H](O)[C@](C)(O)[C@@H](CC)OC(=O)[C@@H]2C)C[C@@]1(C)OC [Example B-109] | 3 | 10 | 9 |

Source: patent publication US20250236616A1, “IMMUNOMODULATING AZALIDES” (Zoetis Services LLC, priority 2021, published 2025)
